“Also recorded” adds a separate entry of the source. Bridge positions count the residues as written; N and C are the ends. Square brackets hold non-standard residues; d marks the D form. Ends that are not written are not given here. dOrn = NCCC[C@@H](N)C(=O)O; Orn = NCCC[C@H](N)C(=O)O; Aib = CC(C)(N)C(=O)O

In one test the test system is microorganisms (e.g., bacteria, yeasts, fungi). The test is described as follows: Targeting peptide binding to target microorganisms (Table 3). To be noted: microorganism the targeting peptide binds; binding in aqueous buffers varied by peptide solubility, preferably 1x PBS.
As for “1T-304 (STAGEASRRTASEASRRTAAKLRG; Peptide with targeting and/or antimicrobial activity) [Peptide 1T-304]”, the “Target(s)” value was “P. gingivalis”.
“1T-66 (DTDCLSRAYAQRIDELDKQYAGIDKPL; Peptide with targeting and/or antimicrobial activity) [Peptide 1T-66]”: the “Target(s)” value is reported as “S. mutans; also recorded: S. aureus; also recorded: S. epidermidis; also recorded: C. jeikeium; also recorded: C. xerosis; also recorded: C. striatum; also recorded: P. aeruginosa”.
Same read-out and setting: in the case of “Py Pf 12 ([dS]KG[Orn][dS]SGK[dOrn]ES; lactam 8-C; not fully specified)” it was “P. fluorescens”; in that of “1T-82 (FGVGVGIALFMAGYAIGKDLRKKFGKSC; Peptide with targeting and/or antimicrobial activity) [Peptide 1T-82]”, “S. pneumoniae”; in that of “1T-42 (TVLDWLSLALATGLFVYLLVALLRADRA; Peptide with targeting and/or antimicrobial activity) [Peptide 1T-42]”, “S. aureus; also recorded: S. epidermidis; also recorded: C. xerosis; also recorded: C. striatum; also recorded: P. aeruginosa”.
On the same count and under the same terms, the value for “1T-124 (LFDERNKIA; Peptide with targeting and/or antimicrobial activity) [Peptide 1T-124]” was “S. mitis; also recorded: S. mutans; also recorded: S. oralis”.

Staying with this test, now noted: microorganism(s) the targeting peptide binds; binding in aqueous buffers depending on peptide solubility, preferably 1x PBS.
In the case of “PF-165 (GPVSVVASLRRGTTVQRHSQNNHNKGKP; Peptide with targeting and/or antimicrobial activity)”, the “Target(s)” value is “MRSA and C. jejuni”.
The same measure, in the same setting: the value for “PF-172 (LTGVRRPWRAPWAGTSGWALR; Peptide with targeting and/or antimicrobial activity)” was “S. epidermidis and M. luteus and E. coli and P. aeruginosa and MRSA and E. faecalis and C. jejuni”; that for “PF-282 (QNNDTSAWCGSAHKNGNS; Peptide with targeting and/or antimicrobial activity)” was “S. mutans”.
For “PF-314 (ECLKKAIKSKALNKAFKIDVPDEVYDNLLMELEEYEK; Peptide with targeting and/or antimicrobial activity)”, the “Target(s)” value is “S. mutans”.
The same measure, in the same setting: the value for “PF-338 (KGTSCPDQLSKAIRQSI; Peptide with targeting and/or antimicrobial activity)” was “S. mutans”.
The same measure, in the same setting: the value for “PF-154 (GIKKSKHPSTDDYVVKTTIDSL; Peptide with targeting and/or antimicrobial activity)” was “S. mutans”.

The same test, now with this note: microorganism(s) the targeting peptide binds; peptide binding conducted in aqueous buffers varied by peptide solubility, preferably 1x PBS.
On to “PF-570 (KKFPTEESHIQAVLEFKKLTEHPSG; Peptide with targeting and/or antimicrobial activity)”, for which the “Target(s)” value is “S. pneumoniae; also recorded: C. jeikeium”.

Still in this test, the particulars now being: peptide binding in aqueous buffers varied by peptide solubility; preferably 1x PBS.
Take “PF-780 (AVYDALVALAAAEHRAELATRDARAKDTYEKIGVHVVVAA; Peptide with targeting and/or antimicrobial activity)”: the “Target(s) (microorganisms bound by the targeting peptide)” value is recorded as “Mycobacteria spp”.
On the same count and under the same terms, in the case of “PF-765 (YLYWEVEHKPIIAKRDAYYAQLRKQKEIEEGA; Peptide with targeting and/or antimicrobial activity)” it was “S. epidermidis and M. luteus and E. coli and MRSA and E. faecalis and C. jeikeium”; in that of PF-793 (YTQ[Aib]NNASAYAMLLTNKDTVP), “S. mutans”.
Still for that read-out and setting: in the case of “PF-C160 (AASGFTYCASNGVWHPY; Peptide with targeting and/or antimicrobial activity)” it was “F. nucleatum”; in that of “PF-779 (IYGDFFNFYLCDISLKVNGLQPGGPVRTVKLFGQPTGRCTPQ; Peptide with targeting and/or antimicrobial activity)”, “Mycobacteria spp”.
The same measure, in the same setting: in the case of “PF-C050 (QGLARPVLRRIPL; Peptide with targeting and/or antimicrobial activity)” it was “A. naeslundii; also recorded: S. mutans”.

The values are drawn from patent publication US20110039762A1, “TARGETED ANTIMICROBIAL MOIETIES” (C3 JIAN, INC., priority 2009, published 2011).
